The record followed here is patent US20130085064A1, “PESTICIDAL MIXTURES CONTAINING ISOXAZOLINE DERIVATIVES AND INSECTICIDE OR NEMATOICIDAL BIOLOGICAL AGENT” (priority 2010, published 2013).

For experiment [1], the system named is Heliothis virescens (tobacco budworm). The experiment can be described thus: Heliothis virescens eggs in 24-well microtiter plate on artificial diet, larval mortality. In kind it is in vivo. To be noted: for pest or weed control at 0.375 ppm / pest or weed control at 0.75 ppm / pest or weed control at 1.5 ppm / pest or weed control at 3 ppm / pest or weed control at 6 ppm / pest or weed control at 12 ppm / pest or weed control at 6.25 ppm / pest or weed control at 12.5 ppm / pest or weed control at 25 ppm / pest or weed control at 50 ppm / pest or weed control at 100 ppm / pest or weed control at 200 ppm: Heliothis virescens, 96 h, read-out: AVERAGE DEAD IN %. From the text:
(§1) The action to be expected E for a given active ingredient combination obeys the so-called COLBY formula and can be calculated as follows (COLBY, S.R. “Calculating synergistic and antagonistic responses of herbicide combination”. Weeds, Vol. 15, pages 20-22; 1967):
(§2) ppm=milligrams of active ingredient (=a.i.) per liter of spray mixture X=% action by active ingredient A) using p ppm of active ingredient Y=% action by active ingredient B) using q ppm of active ingredient.
(§3) According to COLBY, the expected (additive) action of active ingredients A)+B) using p+q ppm of active ingredient is
(§4) If the action actually observed (O) is greater than the expected action (E), then the action of the combination is super-additive, i.e. there is a synergistic effect. In mathematical terms the synergism factor SF corresponds to O/E. In the agricultural practice an SF of ≧1.2 indicates significant improvement over the purely complementary addition of activities (expected activity), while an SF of ≦0.9 in the practical application routine signals a loss of activity compared to the expected activity.
Heliothis Virescens (Tobacco Budworm)
Eggs (0-24 h old) are placed in 24-well microtiter plate on artificial diet and treated with test solutions (DMSO) by pipetting. After an incubation period of 4 days, samples are checked for larval mortality.

In experiment [2] the test system is Tetranychus urticae (two-spotted spider mite). Briefly: Tetranychus urticae bean leaf discs in 24-well microtiter plates, mixed population mortality. In kind it is in vivo. The conditions noted are these: 8 days.
Source text: as §1, §2, §3, §4
Tetranychus Urticae (Two-Spotted Spider Mite)
Bean leaf discs on agar in 24-well microtiter plates are sprayed with test solutions (DMSO). After drying, the leaf discs are infested with mite populations of mixed ages. 8 days later, discs are checked for mixed population mortality.

Setting [3] is: single compound, 12.5 ppm AI, larval mortality, 4 days.
Where [4] appears, read: single compound, 25 ppm AI, larval mortality, 4 days.
Where [5] appears, read: single compound, 50 ppm AI, larval mortality, 4 days.
[6] abbreviates: single compound, 100 ppm AI, larval mortality, 4 days.
Setting [7] is: single compound, 200 ppm AI, larval mortality, 4 days.

Where “and” joins values, the source holds several entries; their conditions need not be identical. Equal entries are not always repeated. Where two headings read alike, the source gives them in different places.

Turning to `Cc1cc(C2=NOC(c3cc(Cl)cc(Cl)c3)(C(F)(F)F)C2)ccc1C(=O)NC1CSC1` (racemic) [SYN 545706], the “AVERAGE DEAD IN %” value in experiment [1] (single compound, 0.1 ppm AI, larval mortality, 4 days) is 0%; in experiment [1] (single compound, 0.2 ppm AI, larval mortality, 4 days), 35% and 25%; in experiment [1] (single compound, 0.4 ppm AI, larval mortality, 4 days), 90% and 78%; in experiment [1] (single compound, 0.8 ppm AI, larval mortality, 4 days), 95% and 88%; in experiment [1] (single compound, 1.6 ppm AI, larval mortality, 4 days), 90% and 91%; in experiment [1] (single compound, 3.2 ppm AI, larval mortality, 4 days), 98% and 96%.
Regarding `CN/C(=N\[N+](=O)[O-])NCc1cnc(Cl)s1` [Clothianidin], the pest or weed control at 0.375 ppm was found to be 0% in experiment [1] (Clothianidin alone 0.375 ppm AI); 0% in experiment [1] (single compound at 0.375 ppm AI); 0% in experiment [1] (single compound, 0.375 ppm AI, larval mortality, 4 days). Moreover, the pest or weed control at 0.75 ppm in experiment [1] (Clothianidin alone 0.75 ppm AI) came out at 0%; in experiment [1] (single compound at 0.75 ppm AI), 0%; in experiment [1] (single compound, 0.75 ppm AI, larval mortality, 4 days), 0%. Further, the pest or weed control at 1.5 ppm turned out to be 0% in experiment [1] (Clothianidin alone 1.5 ppm AI); 0% in experiment [1] (single compound at 1.5 ppm AI); 0% in experiment [1] (single compound, 1.5 ppm AI, larval mortality, 4 days). The pest or weed control at 3 ppm came to 3% in experiment [1] (Clothianidin alone 3 ppm AI); 3% in experiment [1] (single compound at 3 ppm AI); 0% in experiment [1] (single compound, 3 ppm AI, larval mortality, 4 days). The pest or weed control at 6 ppm in experiment [1] (Clothianidin alone 6 ppm AI) stood at 38%; in experiment [1] (single compound at 6 ppm AI), 38%; in experiment [1] (single compound, 6 ppm AI, larval mortality, 4 days), 45%. Further, the pest or weed control at 12 ppm in experiment [1] (Clothianidin alone 12 ppm AI) worked out at 48%; in experiment [1] (single compound at 12 ppm AI), 48%; in experiment [1] (single compound, 12 ppm AI, larval mortality, 4 days), 80%.
For `N#CCNC(=O)c1cnccc1C(F)(F)F` [Flonicamid], the “AVERAGE DEAD IN %” value in experiment [1] (Flonicamid alone 12.5 ppm AI), in experiment [1] (Flonicamid alone 25 ppm AI), in experiment [1] (Flonicamid alone 50 ppm AI), in experiment [1] (Flonicamid alone 100 ppm AI), in experiment [1] (Flonicamid alone 200 ppm AI) and in experiment [1] (Flonicamid alone 400 ppm AI) was 0% each time. For the same compound, the “AVERAGE DEAD IN %” value in experiment [1] (single compound at 12.5 ppm AI), in experiment [1] (single compound at 25 ppm AI), in experiment [1] (single compound at 50 ppm AI), in experiment [1] (single compound at 100 ppm AI), in experiment [1] (single compound at 200 ppm AI) and in experiment [1] (single compound at 400 ppm AI) was 0% throughout. Also, the “AVERAGE DEAD IN %” value in experiment [1] (setting [3]) was found to be 0%; in experiment [1] (setting [4]), 0%; in experiment [1] (setting [5]), 15%; in experiment [1] (setting [6]) it was 0%; in experiment [1] (setting [7]), 0%; in experiment [1] (single compound, 400 ppm AI, larval mortality, 4 days), 0%.
Regarding `O=[N+]([O-])NC1=NCCN1Cc1ccc(Cl)nc1` [Imidacloprid], the “AVERAGE DEAD IN %” value in experiment [2] (25 ppm alone) is 0%; in experiment [2] (50 ppm alone) it was 0%; in experiment [2] (100 ppm alone) it was 25%; in experiment [2] (200 ppm alone) it was 0%; in experiment [2] (400 ppm alone), 13%; in experiment [2] (800 ppm alone) it was 25%. The “AVERAGE DEAD IN %” value worked out at 0% in experiment [2] (Imidacloprid alone, 25 ppm, Table 123); 0% in experiment [2] (Imidacloprid alone, 50 ppm, Table 123); 25% in experiment [2] (Imidacloprid alone, 100 ppm, Table 123); 0% in experiment [2] (Imidacloprid alone, 200 ppm, Table 123); 13% in experiment [2] (Imidacloprid alone, 400 ppm, Table 123); 25% in experiment [2] (Imidacloprid alone, 800 ppm, Table 123). Besides, the pest or weed control at 6.25 ppm in experiment [1] (Imidacloprid alone 6.25 ppm AI) turned out to be 0%; in experiment [1] (single compound at 6.25 ppm AI) it was 0%; in experiment [1] (single compound, 6.25 ppm AI, larval mortality, 4 days), 0%. In addition, the pest or weed control at 12.5 ppm in experiment [1] (Imidacloprid alone 12.5 ppm AI), in experiment [1] (single compound at 12.5 ppm AI) and in experiment [1] (setting [3]) was 0% in each case. Further, the pest or weed control at 25 ppm worked out at 20% in experiment [1] (Imidacloprid alone 25 ppm AI), 20% in experiment [1] (single compound at 25 ppm AI) and 75% in experiment [1] (setting [4]). Besides, the results for the pest or weed control at 50 ppm in experiment [1] (Imidacloprid alone 50 ppm AI), in experiment [1] (single compound at 50 ppm AI) and in experiment [1] (setting [5]) were 50%, 50% and 85%, respectively. The results for the pest or weed control at 100 ppm in experiment [1] (Imidacloprid alone 100 ppm AI), in experiment [1] (single compound at 100 ppm AI) and in experiment [1] (setting [6]) were 95%, 95% and 88%, respectively. In addition, the pest or weed control at 200 ppm in experiment [1] (Imidacloprid alone 200 ppm AI), in experiment [1] (single compound at 200 ppm AI) and in experiment [1] (setting [7]) was 100% in each case.
Take Emamectin: the “AVERAGE DEAD IN %” value is on record as 70% in experiment [2] (0.1 ppm alone); 75% in experiment [2] (0.2 ppm alone); 93% in experiment [2] (0.4 ppm alone); 95% in experiment [2] (0.8 ppm alone); 95% in experiment [2] (1.6 ppm alone); 100% in experiment [2] (3.2 ppm alone). The “AVERAGE DEAD IN %” value in experiment [2] (Emamectin alone, 0.1 ppm, Table 121) is 70%; in experiment [2] (Emamectin alone, 0.2 ppm, Table 121) it was 75%; in experiment [2] (Emamectin alone, 0.4 ppm, Table 121), 93%; in experiment [2] (Emamectin alone, 0.8 ppm, Table 121), 95%; in experiment [2] (Emamectin alone, 1.6 ppm, Table 121) it was 95%; in experiment [2] (Emamectin alone, 3.2 ppm, Table 121), 100%.
